Measured values published in the supplement of paper PMC12494721.
Where a name gives a salt, the structure may show the parent alone.

Experiments:
Conditions in all cases: incubation time: 27 h, anaerobic, 37 °C
[1] = tested on: Clostridium sporogenes DSM 1664; test: growth (OD595) fold change vs plate DMSO controls (fold change (ratio)); higher = more growth
[2] = tested on: Clostridium sporogenes DSM 1664; test: fold change of Tryptamine concentration vs plate DMSO controls (fold change (ratio)); higher = more amine produced
[3] = tested on: Klebsiella aerogenes DSM 30053; test: growth (OD595) fold change vs plate DMSO controls (fold change (ratio)); higher = more growth
[4] = tested on: Klebsiella aerogenes DSM 30053; test: fold change of Cadaverine concentration vs plate DMSO controls (fold change (ratio)); higher = more amine produced
[5] = tested on: Klebsiella aerogenes DSM 30053; test: fold change of Histamine concentration vs plate DMSO controls (fold change (ratio)); higher = more amine produced
Protocol: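 Dose-response follow-up: bacteria (E. coli IAI1, K. aerogenes DSM 30053, C. sporogenes DSM 1664, R. gnavus DSM 108212) were grown anaerobically in mGAM at 37 °C for 27 h with compound at 0.6125-20 µM. Amines were measured in the whole culture by targeted LC-MS/MS. Metabolite fold change and OD595 fold change are relative to plate DMSO controls; n=2 biological replicates. OD fold changes are not clipped, so slightly negative values mean no growth.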

[6] = tested on: Klebsiella aerogenes DSM 30053; test: fold change of Putrescine concentration vs plate DMSO controls (fold change (ratio)); higher = more amine produced
[7] = tested on: Ruminococcus gnavus DSM 108212; test: growth (OD595) fold change vs plate DMSO controls (fold change (ratio)); higher = more growth
[8] = tested on: Ruminococcus gnavus DSM 108212; test: fold change of Tryptamine concentration vs plate DMSO controls (fold change (ratio)); higher = more amine produced
[9] = tested on: Ruminococcus gnavus DSM 108212; test: fold change of 2-Phenylethylamine concentration vs plate DMSO controls (fold change (ratio)); higher = more amine produced

NCc1ccccc1CC(=O)N[C@@H]1C(=O)N2C(C(=O)O)=C(CSc3nnnn3CC(=O)O)CS[C@H]12 [Ceforanide]
Conditions	fold change of Tryptamine concentration, [2]	growth, [1]
0.6125 µM	0.989	0.842
1.25 µM	1	0.767
2.5 µM	1.04	0.564
5 µM	0.576	0.36
10 µM	0.035	-0.0035
20 µM	0.0236	-0.0325

CC=CC1=C(C(=O)O)N2C(=O)[C@@H](NC(=O)[C@H](N)c3ccc(O)cc3)[C@H]2SC1 [Cefprozil]
Conditions	fold change of Tryptamine concentration, [2]	growth, [1]
0.6125 µM	1	1.1
1.25 µM	0.973	0.85
2.5 µM	1	1.02
5 µM	0.974	0.79
10 µM	0.926	0.573
20 µM	0.722	0.194

CC(=O)OCC1=C(C(=O)O)N2C(=O)[C@@H](NC(=O)Cc3cccs3)[C@H]2SC1 [Cephalothin sodium salt]
Conditions	fold change of Tryptamine concentration, [2]	growth, [1]
0.6125 µM	0.905	0.841
1.25 µM	0.0953	0.629
2.5 µM	0.0223	-0.0397
5 µM	0.0219	-0.0266
10 µM	0.0236	-0.0343
20 µM	0.0234	-0.0372

CC(C)/N=c1\cc2n(-c3ccc(Cl)cc3)c3ccccc3nc-2cc1Nc1ccc(Cl)cc1 [Clofazimine]
Conditions	fold change of Tryptamine concentration, [2]	growth, [1]
0.6125 µM	0.975	1.11
1.25 µM	0.893	1.34
2.5 µM	0.681	1.22
5 µM	0.365	0.64
10 µM	0.379	0.578
20 µM	0.0193	-0.0109

Cc1cc(C(C#N)c2ccc(Cl)cc2)c(Cl)cc1NC(=O)c1cc(I)cc(I)c1O (stereo not drawn) [Closantel]
Conditions	fold change of Tryptamine concentration, [2]	growth, [1]
0.6125 µM	0.999	0.882
1.25 µM	1.02	0.866
2.5 µM	0.991	0.792
5 µM	0.895	0.749
10 µM	0.367	0.364
20 µM	0.0184	-0.0258

Oc1c(Cl)cc(Cl)c(Cl)c1Cc1c(O)c(Cl)cc(Cl)c1Cl [Hexachlorophene]
Conditions	fold change of Tryptamine concentration, [2]	growth, [1]
0.6125 µM	1.1	1.05
1.25 µM	1.03	0.819
2.5 µM	1.09	0.779
5 µM	0.693	0.711
10 µM	0.0218	-0.0128
20 µM	0.0164	-0.032

N[C@@H](C(=O)N[C@@H]1C(=O)N2C(C(=O)O)=C(Cl)CC[C@H]12)c1ccccc1 [Loracarbef]
Conditions	fold change of Tryptamine concentration, [2]	growth, [1]
0.6125 µM	0.974	1.15
1.25 µM	0.86	0.723
2.5 µM	0.0468	-0.0147
5 µM	0.0243	-0.0473
10 µM	0.0223	-0.0388
20 µM	0.0215	-0.0407

O=C1NCCN1c1ncc([N+](=O)[O-])s1 [Niridazole]
Conditions	fold change of Tryptamine concentration, [2]	growth, [1]
0.6125 µM	0.708	1.08
1.25 µM	0.607	1.15
2.5 µM	0.181	0.588
5 µM	0.0568	0.258
10 µM	0.0233	-0.0146
20 µM	0.018	-0.0213

CC(=O)Oc1ccccc1C(=O)Nc1ncc([N+](=O)[O-])s1 [Nitazoxanide]
Conditions	fold change of Tryptamine concentration, [2]	growth, [1]
0.6125 µM	1.01	1.24
1.25 µM	0.989	1.23
2.5 µM	0.993	1.29
5 µM	0.314	0.809
10 µM	0.0174	-0.0196
20 µM	0.0175	-0.0243

O=[N+]([O-])c1ccc(O)c2ncccc12 [Nitroxoline]
Conditions	fold change of Cadaverine concentration, [4]	fold change of Histamine concentration, [5]	fold change of Putrescine concentration, [6]	growth, [3]
0.6125 µM	0.967	0.949	1.04	0.817
1.25 µM	0.966	0.911	1.03	0.815
2.5 µM	0.935	1.16	1.02	0.882
5 µM	0.971	0.926	1.06	0.884
10 µM	0.966	1.02	0.997	0.646
20 µM	0.977	0.852	1.01	0.584

Cc1ncc([N+](=O)[O-])n1CC(C)O (stereo not drawn) [Secnidazole]
Conditions	fold change of Tryptamine concentration, [2]	growth, [1]
0.6125 µM	0.901	0.982
1.25 µM	0.773	1.11
2.5 µM	0.735	1.16
5 µM	0.035	0.156
10 µM	0.026	-0.0233
20 µM	0.0204	-0.023

CC1(C)S[C@@H]2[C@H](NC(=O)[C@H](N)c3ccccc3)C(=O)N2[C@H]1C(=O)OC1OC(=O)c2ccccc21 (stereo partly drawn) [Talampicillin hydrochloride]
Conditions	fold change of 2-Phenylethylamine concentration, [9]	fold change of Cadaverine concentration, [4]	fold change of Histamine concentration, [5]	fold change of Putrescine concentration, [6]	fold change of Tryptamine concentration, [8]	growth, [3]	growth, [7]
0.6125 µM	0.103	0.97	0.999	1.03	0.121	0.802	1.73
1.25 µM	0.105	0.967	0.862	1.05	0.116	0.804	0.81
2.5 µM	0.112	0.958	1.31	1.01	0.136	0.905	0.918
5 µM	0.1	1.03	1.27	1.08	0.13	1.1	1.33
10 µM	0.138	1.09	0.959	1.11	0.174	1.1	0.729
20 µM	0.102	1.17	0.912	1.12	0.135	0.477	0.199

C[C@]1(Cn2ccnn2)[C@H](C(=O)O)N2C(=O)C[C@H]2S1(=O)=O [Tazobactam]
Conditions	fold change of Tryptamine concentration, [2]	growth, [1]
0.6125 µM	1	1.01
1.25 µM	1.01	1.05
2.5 µM	1.11	1.01
5 µM	1.08	1.01
10 µM	0.984	0.648
20 µM	0.921	0.353
